{
  "source": "patent US9238022B2",
  "about": "“Xanthanodien for the treatment of cancer” (priority 2010, dated 2016)",
  "key": {"NIH:OVCAR-3 cells": {"test_system": "NIH:OVCAR-3 cells", "assay": "Ovarian cancer animal model (i.p. OVCAR-3 ascites)", "assay_type": "in vivo, Balb/c nu/nu mice", "method": "In order to assess the efficacy of EPD in the treatment of ovarian cancer, in vivo experiments were performed with Balb/c nu/nu mice (Charles River Laboratories, France). As a model system of advanced ovarian cancer, a total of 20 Balb/c nu/nu mice were inoculated intra-peritoneally (i.p.) with 1.0×10^7 cells NIH:OVCAR-3 cells (American Type Culture Collection (ATCC number: HTB-161™)/200 μl PBS. NIH:OVCAR-3 is an appropriate model system in which to study drug resistance in ovarian cancer. Upon inoculation into the abdominal cavity ascites were formed at first in only 5 mice. One mouse after having developed a large abdomen was sacrificed and the ascites cells were inoculated into the 15 mice which had not developed ascites. Another mouse was sacrificed to freeze down the cells. […] The 15 mice without ascites were devided into 3 groups of 5 mice. One group served as control, one group received the standard chemotherapy cisplatin and one group received the test drug EPD.\nDrugs were given 200 μl/mouse i.p. in order to assess their efficacy as anti-tumor drug. The weight of mice when drug-treated varied between 22 and 26 gram, all with a swollen abdomen. Reduction of the swollen abdomen of the mice (resulting from the killing of the OVCAR-3 cells) was then studied.\nEremophila-1(10)-11(13)-dien-12,8β-olide (EPD) was administered at 20 mg/kg body weight. EPD was isolated from Calomeria amaranthoides as described in Example 1 above. The drug was inoculated twice a week into the abdominal cavity of the mice."}, "[1]": {"test_system": "ovarian cancer cells JC, NIH:OVCAR-3, SKOV-3", "assay": "In vitro cytotoxicity test (Alamar blue, microscopy) on ovarian cancer cells", "assay_type": "cell-based", "settings": "for cytotoxicity towards ovarian cancer cells (in words): 1, 5 and 10 μg/mL", "method": "(§1) Cells used in the assays were an ovarian cell line, JC (van Haaften-Day et al. 1983. Cancer Research 43: 3725-3731), OVCAR-3 and SKOV-3, The American Type Culture Collection (ATCC), a melanoma line (MM-An, Byers et al. 1991. Am J Path 139, No 2: 423-435) and normal human diploid fibroblasts primary cultures (Brookes et al. 2002 The EMBO Journal Vol. 21, No. 12: 2936-2945).\n(§2) In vitro cytotoxicity tests were performed using a non-fluorescent substrate, Alamar blue (BioSource, Invitrogen, UK) as described by Page et al. (Page B, Page M and Noel C. 1993. International Journal of Oncology 3: 473-476).\n(§3) Ovarian cancer cells (1×10^4 or 5×10^4) were seeded in 24-well plates (Costar, USA) and grown in RPMI-1640, supplemented with 6 mM L-glutamine, 10% fetal calf serum (FCS) (Gibco, Invitrogen, UK) and penicillin (100 units/mL) and streptomycin (100 μg/mL), while melanoma cells and normal fibroblasts were grown in Dulbecco's modified Eagle medium (DMEM), also supplemented with L-glutamine and FCS. The cultures were maintained in a humidified atmosphere of 5% CO2 at 37° C.\n(§4) The in exponential growth cultures (in triplicates) were treated with the compound, dissolved in dimethyl sulfoxide (DMSO) and added at final concentrations of 1, 5, and 10 μg/mL. In 2 mL medium/well 10% Alamar blue was added and 100 μl of the supernatant of the 24-well plates after 24, 48 and 72 hrs were pipetted into 96-well plates (Costar, USA). Cell viability was measured with a 96-well plate reader (Molecular Devices Ltd, UK).\n(§5) Ovarian cancer cells JC, NIH:OVCAR-3, Skov-3, fibroblasts as well as melanoma cancer cells MM-AN were used for cytotoxicity tests with EPD and EPA. The final concentrations of EPD and EPA added to the growth medium were 1, 5 and 10 μg/ml per well.\n(§6) Photographs were taken from the ovarian cancer cell line JC, the melanoma cell line MM-An and normal fibroblasts in 24-well plates using a Leica inverted microscope at a magnification of 100 times. Concentrations of EPD ranged 1-10 μg/mL and the experiments were terminated at 48 and 72 hrs (FIGS. 6-8).\nCell viability was measured by adding 10% Alamar Blue (BioSource, Invitrogen, UK) to ovarian cancer cell cultures (OVCAR-3, SKOV-3) to 1, 5 and 10 μg/ml of EPD and to the control cultures (as described above). After 24, 48 and 72 hours incubation, 100 μl of culture supernatant was taken and cell viability measured with a plate reader (Molecular Devices, Ltd, UK) according to the manufacturer's instructions. The results are depicted in FIGS. 3-5 and confirm that the phenomenon observed in the photographs of FIGS. 6-8 is cell death."}, "leukocytes": {"test_system": "leukocytes", "settings": "Dupuis & Brisson 1976; cited from earlier work"}, "melanoma cells MM-AN": {"test_system": "melanoma cells MM-AN", "assay": "In vitro cytotoxicity test on melanoma cells", "assay_type": "cell-based", "method": "as §1, §2, §3, §4, §5, §6"}, "[2]": {"test_system": "normal human diploid fibroblasts", "assay": "In vitro cytotoxicity test on normal cells", "assay_type": "cell-based", "method": "The cultures were maintained in a humidified atmosphere of 5% CO2 at 37° C.\nas §4, §5, §6"}, "P388 Leukemia": {"test_system": "P388 Leukemia", "settings": "NCI screening data 1972; cited from earlier work"}, "[3]": {"settings": "20 mg/kg i.p. twice a week for 6 weeks"}},
  "note": "“Also recorded” adds a separate entry of the source.",
  "data": [
    {"molecule": "N.N.[Cl][Pt][Cl]", "note": "[cisplatin, reference compound]", "values": [
      {"measurement": "swelling of the abdomen (ascites)", "setting": "NIH:OVCAR-3 cells; 5 mg/kg i.p. once a week for 4 weeks", "result": "reduced during treatment"},
      {"measurement": "general health, side effects", "setting": "NIH:OVCAR-3 cells; 5 mg/kg i.p. once a week, 4 weeks", "result": "got very sick; also recorded: had to be euthanized"},
      {"measurement": "killing of cancer cells, parallel comparison", "setting": "[1]; comparison of crude extract, cisplatin and docetaxol, concentration of the drugs not given", "result": "all killed; also recorded: completely kill"}
    ]},
    {"molecule": "C=C1C(=O)O[C@@H]2C[C@@]3(C)CCC[C@H](C)C3=C[C@H]12", "note": "[alantolactone]", "values": [
      {"measurement": "toxicity to leukocytes", "setting": "leukocytes", "result": "toxic"}
    ]},
    {"molecule": "C=C1C(=O)O[C@@H]2CC3=CCC[C@H](C)[C@@]3(C)C[C@H]12", "note": "[EPD, eremophila-1(10)-11(13)-dien-12,8β-olide]", "values": [
      {"measurement": "cell death of cancer cells at 5 μg/mL", "setting": "melanoma cells MM-AN; 5 μg/mL, 48 hours, MM-An", "result": "Cell death was observed in the majority of cancer cells"},
      {"measurement": "cell death of cancer cells at 10 μg/mL", "setting": "melanoma cells MM-AN; 10 μg/mL, 48 hours, MM-An", "result": "All cells were dead"},
      {"measurement": "effect on normal cells at 5 μg/mL", "setting": "[2]; 5 μg/mL, 48 hours", "result": "not or little affected; also recorded: largely unaffected; also recorded: little affected"},
      {"measurement": "effect on normal fibroblasts at 10 μg/mL", "setting": "[2]; 10 μg/mL, 48 hours", "result": "more evidence of cell death"},
      {"measurement": "general health, side effects", "setting": "NIH:OVCAR-3 cells; [3]", "result": "looked very healthy; also recorded: did not show any signs of side effects"},
      {"measurement": "swelling of the abdomen (ascites)", "setting": "NIH:OVCAR-3 cells; [3]", "result": "reduced during treatment; also recorded: remission of cancer; also recorded: the ascites disappeared"},
      {"measurement": "survival", "setting": "NIH:OVCAR-3 cells; i.p. twice a week for 6 weeks", "result": "all the animals survived the study"},
      {"measurement": "return of ascites after end of treatment", "setting": "NIH:OVCAR-3 cells; three mice kept one month without further treatment after 6 weeks of treatment", "result": "In one mouse the ascites returned, two mice did not develop ascites again"},
      {"measurement": "effect on cancer cells at 1 μg/mL", "setting": "[1]; 1 μg/mL, in vitro", "result": "many cancer cells were floating in the wells; also recorded: great cell loss was already seen; also recorded: substantial killing of cancer cells"},
      {"measurement": "cell death of cancer cells at 5 μg/mL", "setting": "[1]; 5 μg/mL, 48 hours", "result": "Cell death was observed in the majority of cancer cells; also recorded: killed"},
      {"measurement": "cell death of cancer cells at 10 μg/mL", "setting": "[1]; 10 μg/mL, 48 hours", "result": "All cells were dead"},
      {"measurement": "cytotoxicity towards ovarian cancer cells (in words)", "setting": "[1]", "result": "significant activity; also recorded: very clear cytotoxic effects"},
      {"measurement": "selectivity, cancer cells over normal cells", "setting": "[1]; in vitro, compared with normal cells", "result": "selectively kills cancer cells over normal cells"}
    ]},
    {"molecule": "CC(=O)O[C@@]12CO[C@@H]1C[C@H](O)[C@@]1(C)C(=O)[C@H](O)C3=C(C)[C@@H](OC(=O)[C@H](O)[C@@H](NC(=O)OC(C)(C)C)c4ccccc4)C[C@@](O)([C@@H](OC(=O)c4ccccc4)[C@H]21)C3(C)C", "note": "[docetaxol, reference compound]", "values": [
      {"measurement": "killing of normal cells, parallel comparison", "setting": "[2]; concentration of the drugs not given", "result": "completely kill"}
    ]},
    {"molecule": "C=C1C(=O)O[C@H]2CC3=CCC[C@H](C)[C@@]3(C)C[C@@H]12", "note": "[napthofuranone, (3aβ,4aα,5α,9aβ)-3a,4,4a,5,6,7,9,9a-octahydro 4a,5-dimethyl-3-methylene naphtho[2,3-b]furan-2(3H)-2-one]", "values": [
      {"measurement": "in vivo anti-tumor activity", "setting": "P388 Leukemia", "result": "no clear results"}
    ]},
    {"molecule": "C=C(C(=O)O)[C@@H]1CCC2=CCC[C@H](C)[C@@]2(C)C1", "note": "[EPA, eremophila-1(10),11(13)-dien-12-oic acid]", "values": [
      {"measurement": "cytotoxicity towards melanoma cells (in words)", "setting": "melanoma cells MM-AN; 1, 5 and 10 μg/mL", "result": "no cytotoxicity"},
      {"measurement": "cytotoxicity towards normal fibroblasts (in words)", "setting": "[2]; 1, 5 and 10 μg/mL", "result": "no cytotoxicity"},
      {"measurement": "cytotoxicity towards ovarian cancer cells (in words)", "setting": "[1]", "result": "non-cytotoxic; also recorded: no cytotoxicity; also recorded: did not show cytotoxic effects"}
    ]}
  ]
}
